Measured values taken from the NIST ThermoML archive (doi:10.1021/acs.jced.6b00350).
“And” between values parts separate entries of the source, which are not always exact repeats. Equal entries are not always repeated. Numbers after ± are expanded uncertainties.

Details: Liquid, Hot wire method

FC(F)CC(F)(F)F [1,1,1,3,3-pentafluoropropane]
Details | thermal conductivity
283.24 K, 29153 kPa | 0.1046 ± 0.0013 W/m/K
283.25 K, 29157 kPa | 0.1041 ± 0.0013 W/m/K
283.29 K, 22330 kPa | 0.1022 ± 0.0013 W/m/K
283.3 K, 22338 kPa | 0.102 ± 0.0013 W/m/K
283.31 K, 16102 kPa | 0.09978 ± 0.0013 W/m/K
283.34 K, 10490 kPa | 0.09781 ± 0.0013 W/m/K
283.35 K, 10482 kPa | 0.09779 ± 0.0013 W/m/K
283.39 K, 5078 kPa | 0.09561 ± 0.0012 W/m/K
283.39 K, 5084 kPa | 0.09578 ± 0.0012 W/m/K
283.4 K, 124 kPa | 0.09369 ± 0.0012 W/m/K
297.28 K, 238 kPa | 0.08846 ± 0.0011 W/m/K and 0.0884 ± 0.0011 W/m/K
297.3 K, 6681 kPa | 0.09147 ± 0.0012 W/m/K
297.31 K, 6682 kPa | 0.09132 ± 0.0012 W/m/K
297.33 K, 12567 kPa | 0.09379 ± 0.0012 W/m/K
297.33 K, 12571 kPa | 0.09396 ± 0.0012 W/m/K
297.36 K, 12582 kPa | 0.09405 ± 0.0012 W/m/K
297.37 K, 12586 kPa | 0.09376 ± 0.0012 W/m/K
297.49 K, 19332 kPa | 0.09652 ± 0.0012 W/m/K
297.49 K, 19337 kPa | 0.09665 ± 0.0012 W/m/K
297.69 K, 229 kPa | 0.08847 ± 0.0011 W/m/K
297.69 K, 239 kPa | 0.0881 ± 0.0011 W/m/K
297.7 K, 6677 kPa | 0.0909 ± 0.0012 W/m/K and 0.09107 ± 0.0012 W/m/K
297.72 K, 12571 kPa | 0.09392 ± 0.0012 W/m/K
297.73 K, 12572 kPa | 0.0939 ± 0.0012 W/m/K
297.75 K, 12582 kPa | 0.09397 ± 0.0012 W/m/K
297.75 K, 12583 kPa | 0.09395 ± 0.0012 W/m/K
297.86 K, 19322 kPa | 0.09664 ± 0.0012 W/m/K
297.86 K, 19340 kPa | 0.09658 ± 0.0012 W/m/K
298.13 K, 233 kPa | 0.08778 ± 0.0011 W/m/K
298.14 K, 234 kPa | 0.08789 ± 0.0011 W/m/K
298.14 K, 6680 kPa | 0.09232 ± 0.0012 W/m/K and 0.09104 ± 0.0012 W/m/K
298.14 K, 12568 kPa | 0.09369 ± 0.0012 W/m/K
298.14 K, 12571 kPa | 0.09358 ± 0.0012 W/m/K
298.17 K, 12583 kPa | 0.09365 ± 0.0012 W/m/K
298.18 K, 12574 kPa | 0.09352 ± 0.0012 W/m/K
298.26 K, 19324 kPa | 0.09657 ± 0.0012 W/m/K
298.27 K, 19334 kPa | 0.09654 ± 0.0012 W/m/K
298.58 K, 12568 kPa | 0.09385 ± 0.0012 W/m/K
298.59 K, 12563 kPa | 0.09379 ± 0.0012 W/m/K
298.6 K, 6668 kPa | 0.09111 ± 0.0012 W/m/K
298.6 K, 6673 kPa | 0.0911 ± 0.0012 W/m/K
298.61 K, 230 kPa | 0.08804 ± 0.0011 W/m/K
298.61 K, 234 kPa | 0.08787 ± 0.0011 W/m/K
298.62 K, 12577 kPa | 0.09374 ± 0.0012 W/m/K
298.62 K, 12578 kPa | 0.09384 ± 0.0012 W/m/K
298.7 K, 19323 kPa | 0.09665 ± 0.0012 W/m/K
298.71 K, 19329 kPa | 0.09658 ± 0.0012 W/m/K
298.72 K, 26079 kPa | 0.09945 ± 0.0013 W/m/K
298.72 K, 26080 kPa | 0.09952 ± 0.0013 W/m/K
298.73 K, 33915 kPa | 0.1022 ± 0.0013 W/m/K
298.73 K, 33916 kPa | 0.1019 ± 0.0013 W/m/K
298.74 K, 41639 kPa | 0.1043 ± 0.0013 W/m/K
298.75 K, 41635 kPa | 0.1043 ± 0.0013 W/m/K
299.08 K, 12562 kPa | 0.09373 ± 0.0012 W/m/K
299.09 K, 12561 kPa | 0.09382 ± 0.0012 W/m/K
299.09 K, 26077 kPa | 0.09835 ± 0.0013 W/m/K
299.09 K, 26079 kPa | 0.09892 ± 0.0013 W/m/K
299.09 K, 33913 kPa | 0.1011 ± 0.0013 W/m/K
299.09 K, 33914 kPa | 0.1013 ± 0.0013 W/m/K
299.09 K, 41634 kPa | 0.1044 ± 0.0013 W/m/K
299.09 K, 41635 kPa | 0.1044 ± 0.0013 W/m/K
299.1 K, 6675 kPa | 0.09125 ± 0.0012 W/m/K
299.11 K, 6673 kPa | 0.0912 ± 0.0012 W/m/K
299.11 K, 12580 kPa | 0.0938 ± 0.0012 W/m/K
299.12 K, 12583 kPa | 0.09382 ± 0.0012 W/m/K
299.14 K, 227 kPa | 0.08804 ± 0.0011 W/m/K
299.14 K, 238 kPa | 0.08799 ± 0.0011 W/m/K
299.19 K, 19316 kPa | 0.09651 ± 0.0012 W/m/K
299.19 K, 19328 kPa | 0.09648 ± 0.0012 W/m/K
299.48 K, 41634 kPa | 0.1043 ± 0.0013 W/m/K
299.49 K, 33910 kPa | 0.1012 ± 0.0013 W/m/K
299.49 K, 33912 kPa | 0.1011 ± 0.0013 W/m/K
299.49 K, 41635 kPa | 0.1042 ± 0.0013 W/m/K
299.5 K, 26073 kPa | 0.09896 ± 0.0013 W/m/K
299.5 K, 26076 kPa | 0.099 ± 0.0013 W/m/K
299.89 K, 41632 kPa | 0.1042 ± 0.0013 W/m/K
299.9 K, 41629 kPa | 0.1042 ± 0.0013 W/m/K
299.91 K, 33908 kPa | 0.1013 ± 0.0013 W/m/K
299.92 K, 33910 kPa | 0.1013 ± 0.0013 W/m/K
299.93 K, 26071 kPa | 0.09862 ± 0.0013 W/m/K
299.93 K, 26073 kPa | 0.09884 ± 0.0013 W/m/K
300.35 K, 41624 kPa | 0.1042 ± 0.0013 W/m/K
300.35 K, 41629 kPa | 0.1044 ± 0.0013 W/m/K
300.37 K, 33905 kPa | 0.1015 ± 0.0013 W/m/K
300.38 K, 33907 kPa | 0.1015 ± 0.0013 W/m/K
300.4 K, 26067 kPa | 0.09874 ± 0.0013 W/m/K
300.41 K, 26067 kPa | 0.09891 ± 0.0013 W/m/K
301.58 K, 62451 kPa | 0.1103 ± 0.0014 W/m/K
301.58 K, 62455 kPa | 0.11 ± 0.0014 W/m/K
301.59 K, 68041 kPa | 0.1115 ± 0.0014 W/m/K
301.59 K, 68044 kPa | 0.1115 ± 0.0014 W/m/K
301.6 K, 9757 kPa | 0.09158 ± 0.0012 W/m/K
301.61 K, 9755 kPa | 0.09136 ± 0.0012 W/m/K
301.62 K, 52493 kPa | 0.1071 ± 0.0014 W/m/K
301.63 K, 4924 kPa | 0.08962 ± 0.0011 W/m/K
301.63 K, 52493 kPa | 0.1066 ± 0.0014 W/m/K
301.64 K, 4920 kPa | 0.089 ± 0.0011 W/m/K
301.65 K, 27815 kPa | 0.0982 ± 0.0013 W/m/K
301.65 K, 43573 kPa | 0.1041 ± 0.0013 W/m/K
301.65 K, 43574 kPa | 0.104 ± 0.0013 W/m/K
301.66 K, 27823 kPa | 0.09824 ± 0.0013 W/m/K
301.66 K, 35535 kPa | 0.1015 ± 0.0013 W/m/K
301.66 K, 35538 kPa | 0.1014 ± 0.0013 W/m/K
301.67 K, 289 kPa | 0.08665 ± 0.0011 W/m/K
301.67 K, 293 kPa | 0.08649 ± 0.0011 W/m/K
301.69 K, 21591 kPa | 0.09669 ± 0.0012 W/m/K
301.69 K, 21597 kPa | 0.09656 ± 0.0012 W/m/K
301.75 K, 15353 kPa | 0.09399 ± 0.0012 W/m/K
301.75 K, 15355 kPa | 0.0941 ± 0.0012 W/m/K
301.92 K, 62442 kPa | 0.11 ± 0.0014 W/m/K
301.92 K, 62448 kPa | 0.1098 ± 0.0014 W/m/K
301.93 K, 68033 kPa | 0.1115 ± 0.0014 W/m/K
301.93 K, 68038 kPa | 0.1117 ± 0.0014 W/m/K
301.97 K, 52486 kPa | 0.1073 ± 0.0014 W/m/K
301.97 K, 52491 kPa | 0.107 ± 0.0014 W/m/K
301.98 K, 9757 kPa | 0.09137 ± 0.0012 W/m/K
301.99 K, 9759 kPa | 0.09137 ± 0.0012 W/m/K
302 K, 43569 kPa | 0.104 ± 0.0013 W/m/K
302.01 K, 43570 kPa | 0.1038 ± 0.0013 W/m/K
302.02 K, 35523 kPa | 0.1016 ± 0.0013 W/m/K
302.02 K, 35525 kPa | 0.1012 ± 0.0013 W/m/K
302.03 K, 4920 kPa | 0.08894 ± 0.0011 W/m/K
302.03 K, 4923 kPa | 0.08935 ± 0.0011 W/m/K
302.03 K, 27815 kPa | 0.09838 ± 0.0013 W/m/K
302.03 K, 27819 kPa | 0.09867 ± 0.0013 W/m/K
302.07 K, 299 kPa | 0.08696 ± 0.0011 W/m/K
302.07 K, 21586 kPa | 0.09614 ± 0.0012 W/m/K
302.07 K, 21589 kPa | 0.09606 ± 0.0012 W/m/K
302.08 K, 296 kPa | 0.0866 ± 0.0011 W/m/K
302.14 K, 15358 kPa | 0.09347 ± 0.0012 W/m/K
302.14 K, 15361 kPa | 0.09381 ± 0.0012 W/m/K
302.29 K, 62439 kPa | 0.1101 ± 0.0014 W/m/K
302.29 K, 68021 kPa | 0.1115 ± 0.0014 W/m/K
302.3 K, 62445 kPa | 0.11 ± 0.0014 W/m/K
302.3 K, 68022 kPa | 0.1116 ± 0.0014 W/m/K
302.36 K, 52487 kPa | 0.1067 ± 0.0014 W/m/K
302.36 K, 52489 kPa | 0.107 ± 0.0014 W/m/K
302.39 K, 43573 kPa | 0.104 ± 0.0013 W/m/K
